According to patent publication EP4810052A2, “HCRHR2 SELECTIVE POLYPEPTIDES” (Gubra A/S, priority 2023, dated 2026):
Starred links: 1 amine or outer side, 2 acyl side, 3 side chain; linkers in the order of their positions; H or OH if unused. Non-standard residues stand in square brackets, D forms with d. Residues, ends and D or L forms follow the SMILES beside them. Groups on a side chain read outwards from the residue. *: point of attachment. C20 diacid = O=C(O)CCCCCCCCCCCCCCCCCCC(=O)*; γGlu = O=C(O)[C@H](CCC(=O)[*:2])N[*:1]; Nle = CCCC[C@H](N)C(=O)O; AEEA = NCCOCCOCC(=O)O; Aib = CC(C)(N)C(=O)O

Target: T1, rCRHR1 (Rattus norvegicus, UniProt P35353)
T1 construct: DYK (FLAG); host or cells: CHO-K1, transiently transfected
T1 sequence (P35353 24-415): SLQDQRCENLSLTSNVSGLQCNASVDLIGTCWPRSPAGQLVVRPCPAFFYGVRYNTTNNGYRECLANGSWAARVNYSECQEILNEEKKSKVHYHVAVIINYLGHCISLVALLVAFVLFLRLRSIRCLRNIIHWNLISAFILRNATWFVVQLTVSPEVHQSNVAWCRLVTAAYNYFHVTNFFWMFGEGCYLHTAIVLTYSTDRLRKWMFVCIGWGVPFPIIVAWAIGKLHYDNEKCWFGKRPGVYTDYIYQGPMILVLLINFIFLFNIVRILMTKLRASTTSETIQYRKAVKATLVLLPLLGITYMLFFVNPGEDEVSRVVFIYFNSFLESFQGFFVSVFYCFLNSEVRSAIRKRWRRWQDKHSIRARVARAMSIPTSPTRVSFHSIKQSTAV
Test: cAMP potency, transiently transfected CHO-K1 cells, rCRHR1
Type: cell-based
Conditions: transiently transfected CHO-K1, average n=3; read-out: Transient cell system EC50 (nM) rCRH R1
Protocol: Selected peptides were tested for potency on different species (mouse, rat, porcine) using transiently transfected CHO-K1 cells using the general procedure.

Structure (SMILES): CCCC[C@H](NC(=O)[C@@H](NC(=O)[C@H](CCC(=O)O)NC(=O)[C@H](C)NC(=O)[C@H](CC(N)=O)NC(=O)C(C)(C)NC(=O)[C@H](CCCCNC(=O)COCCOCCNC(=O)COCCOCCNC(=O)CC[C@H](NC(=O)CC[C@H](NC(=O)CCCCCCCCCCCCCCCCCCC(=O)O)C(=O)O)C(=O)O)NC(=O)[C@H](C)NC(=O)[C@H](CCC(N)=O)NC(=O)[C@H](CCC(=O)O)NC(=O)[C@H](CCCNC(=N)N)NC(=O)[C@H](C)NC(=O)[C@H](C)NC(=O)[C@H](CCCNC(=N)N)NC(=O)[C@H](C)NC(=O)[C@H](CCCNC(=N)N)NC(=O)[C@H](C)NC(=O)[C@H](CCC(N)=O)NC(=O)[C@H](CO)NC(=O)[C@H](CC(C)C)NC(=O)[C@H](CC(C)C)NC(=O)[C@@H](NC(=O)[C@H](CCC(N)=O)NC(=O)[C@H](CC(C)C)NC(=O)[C@H](CC(C)C)NC(=O)CNC(=O)[C@@H](NC(=O)[C@@H]1CCCN1C(=O)[C@@H](NC(=O)[C@H](CC(=O)O)NC(=O)[C@H](CC(C)C)NC(=O)[C@H](CO)NC(=O)[C@H](CC(C)C)NC(=O)[C@@H](NC(=O)[C@@H]1CCCN1)C(C)C)C(C)C)[C@@H](C)CC)[C@@H](C)CC)[C@@H](C)CC)C(=O)N[C@@H](C)C(=O)N[C@@H](CCC(=O)O)C(=O)N[C@H](C(N)=O)C(C)C [SEQ ID NO: 238] (H-PVLSLDVPIGLLQILLSQARARAAREQAK([AEEA-AEEA-γGlu-γGlu-C20 diacid])[Aib]NAEI[Nle]AEV-NH2)
- EC50: > 1000 nM
